# In US20070128217A1 (priority 2003, published 2007):
# What was measured:
# [1] = test system: antibodies in sera from SARS patients (sera 1a, 1b, 2, 6, 37, 62, London, SARS-yellow, SARS-green); format: binding, human; set-up: Binding of serum 6 to linear peptides of protein X1 of SARS-CoV Urbani / Binding of serum 37 to linear peptides of protein X1 of SARS-CoV Urbani / Binding of serum 6 to looped/cyclic peptide (PEPSCAN-ELISA) / Binding of serum 37 to looped/cyclic peptide (PEPSCAN-ELISA) / Binding of serum 37 to looped/cyclic peptides of protein X1 of SARS-CoV Urbani / Binding of serum 6 to linear peptides of protein X2 / Binding of serum 37 to linear peptides of protein X2 / Binding of serum 37 to looped/cyclic peptides of protein X2 of SARS-CoV Urbani / Binding of serum 6 to linear peptides of protein M of SARS-CoV Urbani / Binding of serum 37 to linear peptides of protein M of SARS-CoV Urbani / Binding of serum 6 to looped/cyclic peptides of protein M of SARS-CoV Urbani / Binding of serum 37 to looped/cyclic peptides of protein M of SARS-CoV Urbani / Binding of serum 6 to linear peptides of protein X3 of SARS-CoV Urbani / Binding of serum 37 to linear peptides of protein X3 of SARS-CoV Urbani / Binding of serum 37 to looped/cyclic peptides of protein X3 of SARS-CoV Urbani / Binding of serum 6 to linear peptides of protein X4 of SARS-CoV Urbani / Binding of serum 37 to linear peptides of protein X4 of SARS-CoV Urbani / Binding of serum 37 to looped/cyclic peptides of protein X4 of SARS-CoV Urbani / Binding of serum 6 to linear peptides of protein X5 of SARS-CoV Urbani / Binding of serum 37 to linear peptides of protein X5 of SARS-CoV Urbani / Binding of serum 37 to looped/cyclic peptides of protein X5 of SARS-CoV Urbani / Binding of serum 6 to linear peptides of protein N of SARS-CoV Urbani / Binding of serum 37 to linear peptides of protein N of SARS-CoV Urbani / Binding of serum 6 to linear peptide (PEPSCAN-ELISA) / Binding of serum 1a to looped/cyclic peptides of protein N of SARS-CoV Urbani / Binding of serum 1b to looped/cyclic peptides of protein N of SARS-CoV Urbani / Binding of serum 2 to looped/cyclic peptides of protein N of SARS-CoV Urbani / Binding of serum 6 to looped/cyclic peptides of protein N of SARS-CoV Urbani / Binding of serum 37 to looped/cyclic peptides of protein N of SARS-CoV Urbani / Binding of serum 62 to looped/cyclic peptides of protein N of SARS-CoV Urbani / Binding of serum London to looped/cyclic peptides of protein N of SARS-CoV Urbani / Binding of serum SARS-green to looped/cyclic peptides of protein N of SARS-CoV Urbani: unit not given here
# [2] = test system: control sera (pooled serum of ten healthy LUMC hospital workers; commercial negative donor pooled serum from the Dutch bloodbank); format: binding, human; set-up: Binding of Control serum LUMC to linear peptides / Binding of Control serum Blood-bank to linear peptides / Binding of Control serum LUMC to looped peptides / Binding of Control Serum Blood-Bank to Looped peptides / Binding of Control serum LUMC to linear peptides of the protein M of SARS-CoV Urbani / Binding of Control serum Blood-bank to linear peptides of the protein M of SARS-CoV Urbani / Binding of Control serum LUMC to looped peptides of the protein M of SARS-CoV Urbani / Binding of Control Serum Blood-Bank to Looped peptides of the protein M of SARS-CoV Urbani: unit not given here
# [3] = test system: rabbit serum obtained by immunizing a rabbit with the SARS-CoV strain Frankfurt 1; format: binding; set-up: Binding of a rabbit serum to linear peptides / Binding of a rabbit serum to looped peptides / Rabbit serum linear peptides / Rabbit serum looped peptides / Binding of a rabbit serum to linear peptides of protein N of SARS-CoV Urbani (Rabbit serum linear peptides) / Binding of a rabbit serum to looped/cyclic peptides of protein N of SARS-CoV Urbani (Rabbit serum looped peptides): unit not given here
sequence,measurement,setting,value
LLQTLVLKMLHSSSL,Binding of serum 1a to linear peptides of protein X2,[1],0.6
same,Binding of serum 1a to looped/cyclic peptides of protein X2 of SARS-CoV Urbani,[1],0.5
same,Binding of serum 1b to linear peptides of protein X2,[1],0.5
same,Binding of serum 1b to looped/cyclic peptides of protein X2 of SARS-CoV Urbani,[1],0.5
same,Binding of serum 2 to linear peptides of protein X2,[1],0.3
same,Binding of serum 2 to looped/cyclic peptides of protein X2 of SARS-CoV Urbani,[1],0.3
same,Binding of serum 6 to linear peptides of protein X2,[1],0.3
same,Binding of serum 6 to looped/cyclic peptides of protein X2 of SARS-CoV Urbani,[1],0.7
same,Binding of serum 37 to linear peptides of protein X2,[1],0.5
same,Binding of serum 37 to looped/cyclic peptides of protein X2 of SARS-CoV Urbani,[1],0.4
same,Binding of serum 62 to linear peptides of protein X2,[1],0.5
same,Binding of serum 62 to looped/cyclic peptides of protein X2 of SARS-CoV Urbani,[1],0.6
same,Binding of serum London to linear peptides of protein X2,[1],0.4
same,Binding of serum London to looped/cyclic peptides of protein X2 of SARS-CoV Urbani,[1],1.1
same,Binding of serum SARS-green to linear peptides of protein X2,[1],0.5
same,Binding of serum SARS-green to looped/cyclic peptides of protein X2 of SARS-CoV Urbani,[1],0.3
same,Binding of serum SARS-yellow to linear peptides of protein X2,[1],0.5
same,Binding of serum SARS-yellow to looped/cyclic peptides of protein X2 of SARS-CoV Urbani,[1],0.5
same,Binding of Control Serum Blood-Bank to Looped peptides,[2],0.6
same,Binding of Control serum Blood-bank to linear peptides,[2],0.5
same,Binding of Control serum LUMC to linear peptides,[2],0.3
same,Binding of Control serum LUMC to looped peptides,[2],0.6
same,Binding of a rabbit serum to linear peptides,[3],0.2
same,Binding of a rabbit serum to looped peptides,[3],0.4
LLVAAGMEAQFLYLY,Binding of serum 1a to linear peptides of protein X1 of SARS-CoV Urbani,[1],0.8
same,Binding of serum 1a to looped/cyclic peptide (PEPSCAN-ELISA),[1],0.6
same,Binding of serum 1b to linear peptides of protein X1 of SARS-CoV Urbani,[1],0.7
same,Binding of serum 1b to looped/cyclic peptide (PEPSCAN-ELISA),[1],0.5
same,Binding of serum 2 to linear peptides of protein X1 of SARS-CoV Urbani,[1],0.6
same,Binding of serum 2 to looped/cyclic peptide (PEPSCAN-ELISA),[1],0.6
same,Binding of serum 6 to linear peptides of protein X1 of SARS-CoV Urbani,[1],0.5
same,Binding of serum 6 to looped/cyclic peptide (PEPSCAN-ELISA),[1],0.3
same,Binding of serum 37 to linear peptides of protein X1 of SARS-CoV Urbani,[1],0.6
same,Binding of serum 37 to looped/cyclic peptide (PEPSCAN-ELISA),[1],0.6
same,Binding of serum 62 to linear peptides of protein X1 of SARS-CoV Urbani,[1],0.5
same,Binding of serum 62 to looped/cyclic peptide (PEPSCAN-ELISA),[1],0.6
same,Binding of serum London to linear peptides of protein X1 of SARS-CoV Urbani,[1],0.3
same,Binding of serum London to looped/cyclic peptide (PEPSCAN-ELISA),[1],0.2
same,Binding of serum SARS-green to linear peptides of protein X1 of SARS-CoV Urbani,[1],0.1
same,Binding of serum SARS-green to looped/cyclic peptide (PEPSCAN-ELISA),[1],0.4
same,Binding of serum SARS-yellow to linear peptides of protein X1 of SARS-CoV Urbani,[1],0.4
same,Binding of serum SARS-yellow to looped/cyclic peptide (PEPSCAN-ELISA),[1],0.5
same,Binding of Control Serum Blood-Bank to Looped peptides,[2],0.5
same,Binding of Control serum Blood-bank to linear peptides,[2],0.5
same,Binding of Control serum LUMC to linear peptides,[2],0.7
same,Binding of Control serum LUMC to looped peptides,[2],0.6
same,Binding of a rabbit serum to linear peptides,[3],0.2
same,Binding of a rabbit serum to looped peptides,[3],0.5
LPFGWLVIGVAFLAV,Binding of serum 1a to linear peptides of protein X1 of SARS-CoV Urbani,[1],0.8
same,Binding of serum 1a to looped/cyclic peptide (PEPSCAN-ELISA),[1],0.5
same,Binding of serum 1b to linear peptides of protein X1 of SARS-CoV Urbani,[1],0.6
same,Binding of serum 1b to looped/cyclic peptide (PEPSCAN-ELISA),[1],0.3
same,Binding of serum 2 to linear peptides of protein X1 of SARS-CoV Urbani,[1],0.7
same,Binding of serum 2 to looped/cyclic peptide (PEPSCAN-ELISA),[1],0.4
same,Binding of serum 6 to linear peptides of protein X1 of SARS-CoV Urbani,[1],0.5
same,Binding of serum 6 to looped/cyclic peptide (PEPSCAN-ELISA),[1],0.3
same,Binding of serum 37 to linear peptides of protein X1 of SARS-CoV Urbani,[1],0.7
same,Binding of serum 37 to looped/cyclic peptide (PEPSCAN-ELISA),[1],0.6
same,Binding of serum 62 to linear peptides of protein X1 of SARS-CoV Urbani,[1],0.8
same,Binding of serum 62 to looped/cyclic peptide (PEPSCAN-ELISA),[1],0.6
same,Binding of serum London to linear peptides of protein X1 of SARS-CoV Urbani,[1],0.3
same,Binding of serum London to looped/cyclic peptide (PEPSCAN-ELISA),[1],0.2
same,Binding of serum SARS-green to linear peptides of protein X1 of SARS-CoV Urbani,[1],0.3
same,Binding of serum SARS-green to looped/cyclic peptide (PEPSCAN-ELISA),[1],0.3
same,Binding of serum SARS-yellow to linear peptides of protein X1 of SARS-CoV Urbani,[1],0.7
same,Binding of serum SARS-yellow to looped/cyclic peptide (PEPSCAN-ELISA),[1],0.3
same,Binding of Control Serum Blood-Bank to Looped peptides,[2],0.5
same,Binding of Control serum Blood-bank to linear peptides,[2],0.7
same,Binding of Control serum LUMC to linear peptides,[2],0.7
same,Binding of Control serum LUMC to looped peptides,[2],0.4
same,Binding of a rabbit serum to linear peptides,[3],2.0
same,Binding of a rabbit serum to looped peptides,[3],0.5
LPFHRWHTMVQTCTP,Binding of serum 1a to linear peptides of protein X5 of SARS-CoV Urbani,[1],0.8
same,Binding of serum 1a to looped/cyclic peptides of protein X5 of SARS-CoV Urbani,[1],0.5
same,Binding of serum 1b to linear peptides of protein X5 of SARS-CoV Urbani,[1],0.7
same,Binding of serum 1b to looped/cyclic peptides of protein X5 of SARS-CoV Urbani,[1],0.4
same,Binding of serum 2 to linear peptides of protein X5 of SARS-CoV Urbani,[1],0.9
same,Binding of serum 2 to looped/cyclic peptides of protein X5 of SARS-CoV Urbani,[1],0.5
same,Binding of serum 6 to linear peptides of protein X5 of SARS-CoV Urbani,[1],0.6
same,Binding of serum 6 to looped/cyclic peptides of protein X5 of SARS-CoV Urbani,[1],0.3
same,Binding of serum 37 to linear peptides of protein X5 of SARS-CoV Urbani,[1],0.8
same,Binding of serum 37 to looped/cyclic peptides of protein X5 of SARS-CoV Urbani,[1],0.4
same,Binding of serum 62 to linear peptides of protein X5 of SARS-CoV Urbani,[1],0.8
same,Binding of serum 62 to looped/cyclic peptides of protein X5 of SARS-CoV Urbani,[1],0.3
same,Binding of serum London to linear peptides of protein X5 of SARS-CoV Urbani,[1],0.9
same,Binding of serum London to looped/cyclic peptides of protein X5 of SARS-CoV Urbani,[1],0.2
same,Binding of serum SARS-green to linear peptides of protein X5 of SARS-CoV Urbani,[1],0.6
same,Binding of serum SARS-green to looped/cyclic peptides of protein X5 of SARS-CoV Urbani,[1],0.3
same,Binding of serum SARS-yellow to linear peptides of protein X5 of SARS-CoV Urbani,[1],0.4
same,Binding of serum SARS-yellow to looped/cyclic peptides of protein X5 of SARS-CoV Urbani,[1],0.2
same,Binding of Control Serum Blood-Bank to Looped peptides,[2],0.5
same,Binding of Control serum Blood-bank to linear peptides,[2],0.6
same,Binding of Control serum LUMC to linear peptides,[2],0.5
same,Binding of Control serum LUMC to looped peptides,[2],0.4
same,Rabbit serum linear peptides,[3],0.5
same,Rabbit serum looped peptides,[3],0.3
LQELLIQQWIQFMMS,Binding of serum 1a to linear peptides of protein X2,[1],0.7
same,Binding of serum 1a to looped/cyclic peptides of protein X2 of SARS-CoV Urbani,[1],0.6
same,Binding of serum 1b to linear peptides of protein X2,[1],0.6
same,Binding of serum 1b to looped/cyclic peptides of protein X2 of SARS-CoV Urbani,[1],0.5
same,Binding of serum 2 to linear peptides of protein X2,[1],0.3
same,Binding of serum 2 to looped/cyclic peptides of protein X2 of SARS-CoV Urbani,[1],0.3
same,Binding of serum 6 to linear peptides of protein X2,[1],0.3
same,Binding of serum 6 to looped/cyclic peptides of protein X2 of SARS-CoV Urbani,[1],0.2
same,Binding of serum 37 to linear peptides of protein X2,[1],0.5
same,Binding of serum 37 to looped/cyclic peptides of protein X2 of SARS-CoV Urbani,[1],0.4
same,Binding of serum 62 to linear peptides of protein X2,[1],0.5
same,Binding of serum 62 to looped/cyclic peptides of protein X2 of SARS-CoV Urbani,[1],0.6
same,Binding of serum London to linear peptides of protein X2,[1],0.4
same,Binding of serum London to looped/cyclic peptides of protein X2 of SARS-CoV Urbani,[1],0.2
same,Binding of serum SARS-green to linear peptides of protein X2,[1],0.5
same,Binding of serum SARS-green to looped/cyclic peptides of protein X2 of SARS-CoV Urbani,[1],0.2
same,Binding of serum SARS-yellow to linear peptides of protein X2,[1],0.6
same,Binding of serum SARS-yellow to looped/cyclic peptides of protein X2 of SARS-CoV Urbani,[1],0.3
same,Binding of Control Serum Blood-Bank to Looped peptides,[2],0.6
same,Binding of Control serum Blood-bank to linear peptides,[2],0.5
same,Binding of Control serum LUMC to linear peptides,[2],0.3
same,Binding of Control serum LUMC to looped peptides,[2],0.6
same,Binding of a rabbit serum to linear peptides,[3],0.3
same,Binding of a rabbit serum to looped peptides,[3],0.3
